Experimental data as given in US20260132165A1, “MODIFIED NUCLEOSIDE ANALOGUE AND USE THEREOF, AND NUCLEOSIDE ANALOGUE-CONTAINING DOUBLE-STRANDED OLIGONUCLEOTIDE AND USE THEREOF” (RIGERNA THERAPEUTICS (BEIJING) CO., LTD., priority 2023, published 2026).

What was measured:
target gene SOD1 [1] = test: Test Example 4: lipid conjugated siRNA sequences with different carbon chain lengths, SOD1 in mouse brain, lateral ventricle administration; type: in vivo, C57BL/6j mice; set-up: Right hemisphere Mean value of inhibition rate / Left hemisphere Mean value of inhibition rate: unit not given here; details: D5; for Left hemisphere Mean value of inhibition rate: left hemisphere (non-administration side); for Left hemisphere Mean value of inhibition rate / Right hemisphere Mean value of inhibition rate: lateral ventricle; for Right hemisphere Mean value of inhibition rate: right hemisphere (administration side)
Method: 6-8 Week-old C57BL/6j mice were randomly grouped by body weight. Mice in each group were administered with siRNA by lateral ventricle administration, with an administration dose per mouse depending on a specific test. Taking Bregma in mouse brain as point 0 (origin), coordinates of right ventricle were found using the cerebral stereotaxic apparatus and position was marked on surface of skull (position of lateral ventricle was AP (anteroposterior, bregma anterior and posterior): −0.58 mm, ML (mediolateral, left and right of middle raphe): −1.2 mm, DV (dorsoventral, up and down cerebral dura mater plane): −2.2 mm). A dental electric drill was used to drill in the skull above a position of interest, and then medicament was injected into the lateral ventricle by a micro-dosing pump, wherein a total injection volume was 5 μL, and injection duration was 10 min. Needle was retained for 5 min after completion of injection, and then slowly withdrawn. Afterwards, needle hole was sealed with biomedical glue, and then head skin was adhered. After animals woke up, the animals were returned back to animal house and further fed. PBS control group was administered with the same volume of siRNA-free PBS solution. The day of administration was recorded as 0 day (D0), and the mice were sacrificed at observation point after the administration. Different parts of brain region were respectively taken and stored in the RNAlater.
(§1) RNA extraction: the above tissue samples were taken out from the RNAlater, and smashed for 60 s in Tissuelyser type II full-automatic tissue homogenizer, and total RNAs of various tissue samples were extracted using the full-automatic nucleic acid extraction instrument and the nucleic acid extraction kit from Zhejiang Hanwei Science and Technology Co. Ltd. according to methods described in instructions.
(§2) Reverse transcription reaction: 1 μg of the extracted total RNAs of the tissue samples were taken, and configured into 20 μL of reverse transcription system according to a method described in kit instructions by using a reverse transcription kit (Reverse Transcription System, A3500) from Promega Corporation and selecting Oligo (dT)15 reverse transcription primers, and the reverse transcription reaction was completed. After the reaction was ended, 80 μL of RNase-Free water was added into the reverse transcription system to provide cDNA solution for Real-time PCR detection.
(§3) Real-time PCR detection: 20 μL of Real-time PCR reaction system per PCR detection well was configured according to a method described in kit instructions using SYBR™ Select Master Mix (Catalog number: 4472908) reagent from ABI company. Each detection system contained 5 μL of cDNA template obtained from the above reverse transcription reaction, 10 μL of SYBR™ Select Master Mix, 0.5 μL of 10 μM upstream primers, 0.5 μL of 10 μM downstream primers, and 4 μL of RNase-Free H2O. The configured reaction system was subjected to Real-time PCR amplification on ABI StepOnePlus PCR instrument by a three-step method, wherein an amplification procedure was pre-denaturation at 95° C. for 10 min, then denaturation at 95° C. for 30 s, annealing at 60° C. for 30 s, and extension at 72° C. for 30 s; and processes of denaturation, annealing, and extension were repeated for 40 cycles. Gene expression differences were calculated by the ΔΔCt method after completion of the procedure.
In the real-time fluorescence quantitative PCR method, relative quantitative calculation of remaining expression level and inhibition rate of gene mRNA of interest in various test groups was performed by the ΔΔCt method, and the calculation method is as follows: […]

target gene SOD1 [2] = test: Test Example 7: inhibitory activity of lipid conjugated siRNA sequences on SOD1 in mouse adipose and muscle tissues (tail vein injection); type: in vivo, C57BL/6j mice; details: for inhibitory action on liver and kidney tissues: liver and kidney (non-target tissues), D28 and D49; for inhibitory action on liver and kidney tissues / inhibitory activity compared with the NM200 conjugated reference sequence RZ899076 / inhibitory activity compared with Uhd conjugated reference sequence RZ899093 and NM200 conjugated reference sequence RZ899076 / inhibitory activity in mouse skeletal muscle tissues: tail vein 5 mg/kg; for D 14 % Mean value of inhibition rate / D 28 % Mean value of inhibition rate / D 49 % Mean value of inhibition rate / Kidney D 14 % Mean value of inhibition rate / Kidney D 28 % Mean value of inhibition rate / Kidney D 49 % Mean value of inhibition rate / Liver D 14 % Mean value of inhibition rate / Liver D 28 % Mean value of inhibition rate / Liver D 49 % Mean value of inhibition rate: tail vein injection 5 mg/kg; for D 14 % Mean value of inhibition rate / inhibitory activity compared with the NM200 conjugated reference sequence RZ899076 / Kidney D 14 % Mean value of inhibition rate / Liver D 14 % Mean value of inhibition rate: D14; for D 28 % Mean value of inhibition rate / Kidney D 28 % Mean value of inhibition rate / Liver D 28 % Mean value of inhibition rate: D28; for D 49 % Mean value of inhibition rate / Kidney D 49 % Mean value of inhibition rate / Liver D 49 % Mean value of inhibition rate: D49; for inhibitory activity compared with the NM200 conjugated reference sequence RZ899076: mouse adipose tissues; for inhibitory activity compared with Uhd conjugated reference sequence RZ899093 and NM200 conjugated reference sequence RZ899076: D14, D28 and D49; for Kidney D 14 % Mean value of inhibition rate / Kidney D 28 % Mean value of inhibition rate / Kidney D 49 % Mean value of inhibition rate: mouse kidney; for Liver D 14 % Mean value of inhibition rate / Liver D 28 % Mean value of inhibition rate / Liver D 49 % Mean value of inhibition rate: mouse liver
Method: as §1, §2, §3
In the real-time fluorescence quantitative PCR method, relative quantitative calculation of remaining expression level and inhibition rate of gene mRNA of interest in various test groups was performed by the ΔΔCt method, and the calculation method is as follows:
The present test example evaluated, by an evaluation method for inhibitory activity on a target gene in mice, the inhibitory activity of siRNA sequence RZ899090 with the sense strand with the NM073 conjugation at Position 4, siRNA sequence RZ899091 with the sense strand with the NM074 conjugation at Position 4, siRNA sequence RZ899078 with the sense strand with the NM202 conjugation at Position 6 and siRNA reference sequence RZ899093 with the sense strand with the Uhd conjugation at Position 4, and siRNA reference sequence RZ899076 with the sense strand with the NM200 conjugation at Position 4 on the target gene SOD1 of interest in mice. The above conjugation vectors were different in that NM073 was C18 aliphatic chain, NM074 was C20 aliphatic chain, and NM0202 and NM0200 were C22 aliphatic chains.
6-8 Week-old C57BL/6j mice were randomly grouped by body weight, 15 per group, 6 groups in total. Mice in each group were dosed with the above siRNA conjugates by tail vein injection, with an administration dose of 5 mg/kg per mouse, and an administration volume of 150 μL. PBS control group was administered with the same volume of siRNA conjugate-free PBS solution. The day of administration was recorded as D0, and 5 mice in each group were sacrificed on D14, D28 and D49 after administration. Tissues such as paragonadal fat, left hind leg quadriceps muscle, heart, liver, and kidney were respectively taken and stored in the RNAlater. RNA extraction, reverse transcription, and real-time fluorescence quantitative detection were performed on various tissues according to the above method, and gene expression differences were calculated by the above ΔΔCt method.

[3] = mouse adipose tissues (paragonadal fat)
[4] = mouse skeletal muscle tissues (left hind leg quadriceps muscle)

Substance | Left hemisphere Mean value of inhibition rate (target gene SOD1 [1]; 150 μg per mouse) | Right hemisphere Mean value of inhibition rate (target gene SOD1 [1]; 150 μg per mouse) | inhibitory action on liver and kidney tissues (target gene SOD1 [2]) | D 14 % Mean value of inhibition rate (target gene SOD1 [2]; [3]) | D 28 % Mean value of inhibition rate (target gene SOD1 [2]; [3]) | D 49 % Mean value of inhibition rate (target gene SOD1 [2]; [3]) | inhibitory activity compared with the NM200 conjugated reference sequence RZ899076 (target gene SOD1 [2]) | inhibitory activity compared with Uhd conjugated reference sequence RZ899093 and NM200 conjugated reference sequence RZ899076 (target gene SOD1 [2]; mouse heart tissues) | D 14 % Mean value of inhibition rate (target gene SOD1 [2]; mouse heart tissues) | D 28 % Mean value of inhibition rate (target gene SOD1 [2]; mouse heart tissues) | D 49 % Mean value of inhibition rate (target gene SOD1 [2]; mouse heart tissues) | Kidney D 14 % Mean value of inhibition rate (target gene SOD1 [2]) | Kidney D 28 % Mean value of inhibition rate (target gene SOD1 [2]) | Kidney D 49 % Mean value of inhibition rate (target gene SOD1 [2]) | Liver D 14 % Mean value of inhibition rate (target gene SOD1 [2]) | Liver D 28 % Mean value of inhibition rate (target gene SOD1 [2]) | Liver D 49 % Mean value of inhibition rate (target gene SOD1 [2]) | D 14 % Mean value of inhibition rate (target gene SOD1 [2]; [4]) | D 28 % Mean value of inhibition rate (target gene SOD1 [2]; [4]) | inhibitory activity in mouse skeletal muscle tissues (target gene SOD1 [2]) | also measured
RZ899078: siRNA sequence with the sense strand with the NM202 (C22) conjugation at Position 6; SEQ ID NO: 20 / 24 (sense UUUUANUCCUCACUCUAAA; antisense UUUAGAGUGAGGAUUAAAAUG; NM202 (C22) conjugate at sense position 6; modified_base 1..2 OTHER; 2'-methoxy and 5'-thiophosphate modified nucleotides; modified_base 3..5 OTHER; 2'-methoxy modified nucleotides; modified_base 6 OTHER; n is the synthetic nucleotide analog NM202 as described in the disclosure.; modified_base 7..10 OTHER; 2'-fluoro modified nucleotides; modified_base 11..19 OTHER; modified_base 1 OTHER; 2'-methoxy and 5'-thiovinylphosphonate modified nucleotide; modified_base 2 OTHER; 2'-fluoro and 5'-thiophosphate modified nucleotide; modified_base 6 OTHER;) | 30.24 | 52.15 | no inhibitory action | 91.53% | 75.82% | 65.16% | on par | superior inhibitory activity | 83.53% | 79.52% | 63.42% | −7.92% | 1.46% | 2.03% | 20.63% | 15.46% | −11.54% | 71.63% | 69.78% | highest inhibitory activity in muscles | –
RZ899090: siRNA sequence with the sense strand with the NM073 (C18) conjugation at Position 4; SEQ ID NO: 15 / 23 (sense UUUNAAUCCUCACUCUAAA; antisense UUUAGAGUGAGGAUUAAAAUG; NM073 (C18) conjugate at sense position 4; modified_base 1..2 OTHER; 2'-methoxy and 5'-thiophosphate modified nucleotides; modified_base 3 OTHER; 2'-methoxy modified nucleotide; modified_base 4 OTHER; n is the nucleotide analog NM073 as described in the disclosure.; modified_base 5..6 OTHER; 2'-methoxy modified nucleotides; modified_base 7..10 OTHER; 2'-fluoro modified nucleotides; modified_base 11..19 OTHER; modified_base 1 OTHER; 2'-methoxy and 5'-thiovinylphosphonate modified nucleotide; modified_base 2 OTHER; 2'-fluoro and 5'-thiophosphate modified nucleotide; modified_base 3..5 OTHER; …) | 67.87 | 78.49 | no inhibitory action | 92.09% | 85.11% | 61.34% | on par | superior inhibitory activity | 79.58% | 82.12% | 65.43% | 31.38% | 15.90% | 7.12% | 36.99% | 7.32% | −12.46% | 57.16% | 51.23% | certain inhibitory activity | inhibitory activity compared with the vector-free siRNA sequence RX599002 (target gene SOD1 [1]; left and right hemisphere, lateral ventricle 150 μg per mouse): superior inhibitory activity; activity compared with Uhd conjugated reference sequence RZ899093 and NM200 (C22) conjugated reference sequence RZ899076 (target gene SOD1 [1]; right hemisphere (administration side) and left hemisphere (non-administration side), 150 μg per mouse): substantially comparable or superior activity; D 49 % Mean value of inhibition rate (target gene SOD1 [2]; [4]): 42.93%
